US6979686B1, “Substituted pyrazoles as p38 kinase inhibitors” (Pharmacia Corporation, priority 2001, dated 2005)
Where two headings read alike, the source gives them in different places. Blank lines part the entries; values can stand above or below the compound they belong to.

Assays:
[1] = biological target: T1, human p38 kinase alpha (Homo sapiens, UniProt Q16539); assay: p38 kinase in vitro assay, phosphorylation of biotinylated PHAS-I with 32P-ATP; type: biochemical
T1 construct: GST (N, cleaved yes); made in house; host or cells: E. coli DH10B
T1 sequence (Q16539 whole entry): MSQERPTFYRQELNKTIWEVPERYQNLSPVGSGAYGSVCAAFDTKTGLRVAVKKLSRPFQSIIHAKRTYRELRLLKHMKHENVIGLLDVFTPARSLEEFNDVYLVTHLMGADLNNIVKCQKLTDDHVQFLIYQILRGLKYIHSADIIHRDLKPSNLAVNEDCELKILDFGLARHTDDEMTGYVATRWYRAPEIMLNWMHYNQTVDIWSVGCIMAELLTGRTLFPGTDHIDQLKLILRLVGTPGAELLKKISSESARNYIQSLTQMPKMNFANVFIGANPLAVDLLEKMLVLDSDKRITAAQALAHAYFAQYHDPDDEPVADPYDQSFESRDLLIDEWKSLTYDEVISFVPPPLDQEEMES

[2] = tested on: TNF-α, U937 human histiocytic lymphoma cell line; assay: LPS stimulation of TNF production by U937 cells; type: cell-based; details: for inhibition at 1 µM: U-937, @ 1.0 uM, read-out: U937 Cell % inhib @ conc.
Procedure: Maintenance and Differentiation of the U937 Human Histiocytic Lymphoma Cell Line:
Fifty million cells in 100 ml media were induced to terminal monocytic differentiation by 24 hour incubation with 20 ng/ml phorbol 12-myristate 13-acetate (Sigma). The cells were washed by centrifugation (200×g for 5 min) and resuspended in 100 ml fresh medium. After 24-48 hours, the cells were harvested, centrifuged, and resuspended in culture medium at 2 million cells/ml.
LPS Stimulation of TNF Production by U937 Cells:
Compounds were prepared as 10 mM stock solutions in DMSO and diluted in culture medium to yield a final DMSO concentration of 0.1% in the cell assay. LPS (E coli, 100 ng/ml final concentration) was then added at a volume of 0.02 ml. After 4 hour incubation at 37° C., the amount of TNF-α released in the culture medium was quantitated by ELISA. Inhibitory potency is expressed as IC50 (μM).
In vitro whole cell assay for measuring the ability of the compounds to inhibit TNF production in human U937 cells stimulated with LPS are shown in the column identified as: • “U937 Cell IC50, uM or % inhib @ conc., (uM)”

[3] = in vitro P38-alpha kinase, read-out: P38 alpha kinase IC50
[4] = @ 1.0 uM, TNF production, U937 cells stimulated with LPS
[5] = in vitro P38-alpha kinase inhibition, read-out: P38 alpha kinase IC50
[6] = Homo sapiens, TNF production, U937 cells stimulated with LPS
[7] = Homo sapiens, U-937, TNF production, human U937 cells stimulated with LPS, read-out: U937 Cell IC50
[8] = Homo sapiens, TNF production in human U937 cells stimulated with LPS
[9] = TNF production, human U937 cells stimulated with LPS, read-out: U937 Cell IC50
[10] = Homo sapiens, TNF production, LPS-stimulated U937 cells
[11] = Homo sapiens, U-937, TNF production in human U937 cells stimulated with LPS, read-out: U937 Cell IC50

- inhibition at 1 µM ([1]; @ 1.0 uM, read-out: P38 alpha kinase % inhib @ conc.): 95%
- IC50 [2, 7]: 2970 nM
Compound: O=C(NCc1[nH]nc(-c2ccc(F)cc2)c1-c1ccncc1)c1ccccc1I [Example B-0005]

- P38 alpha kinase % inhib @ conc. (uM) ([1]; @ 1.0 uM): 67.0% @
Compound: O=C(NCCc1[nH]nc(-c2ccc(F)cc2)c1-c1ccncc1)NC(=O)c1ccccc1 [Example B-0934]
- U937 Cell % inhib @ conc. (uM) [2, 4]: 36.0% @

- P38 alpha kinase % inhib @ conc. (uM) ([1]; @ 1.0 uM): 70.0% @
- IC50 [2, 9]: 1160 nM
Compound: COc1ccc(CC(=O)NCCCc2[nH]nc(-c3ccc(F)cc3)c2-c2ccncc2)cc1 [Example B-1177]

- IC50 [1, 5]: 41 nM
Compound: O=C(NCCc1[nH]nc(-c2ccc(F)cc2)c1-c1ccncc1)c1ccc(F)cc1C(F)(F)F [Example B-1139]
- inhibition at 1 µM [2, 6]: 29%

- IC50 [1, 5]: 470 nM
Compound: Cc1ccccc1C(=O)NCCc1[nH]nc(-c2ccc(F)cc2)c1-c1ccncc1 [Example B-1120]
- inhibition at 1 µM [2, 6]: 9%

- P38 alpha kinase % inhib @ conc. (uM) ([1]; @ 1.0 uM): 61.0% @
Compound: COc1ccc(CC(=O)NCCc2[nH]nc(-c3ccc(F)cc3)c2-c2ccncc2)cc1OC [Example B-0999]
- U937 Cell % inhib @ conc. (uM) [2, 4]: 24.0% @

- P38 alpha kinase % inhib @ conc. (uM) ([1]; @ 1.0 uM): 51.0% @
Compound: O=C(NCCc1[nH]nc(-c2ccc(F)cc2)c1-c1ccncc1)Nc1ccc(Br)cc1 [Example B-0938]
- U937 Cell % inhib @ conc. (uM) [2, 4]: 29.0% @

The remaining lines, values behind:

Compound: O=C(NCc1[nH]nc(-c2ccc(F)cc2)c1-c1ccncc1)[C@@H]1CCCN1 [B0194]
- IC50 [1, 3]: 1310 nM
- U937 Cell % inhib @ conc. [2, 4]: 22% @

Compound: CCCCOc1ccc(S(=O)(=O)NCCc2[nH]nc(-c3ccc(F)cc3)c2-c2ccncc2)cc1 [Example B-1084]
- IC50 [1, 5]: 430 nM
- inhibition at 1 µM [2, 6]: 29%

Compound: CC(NC(=O)c1ccno1)c1[nH]nc(-c2ccc(F)cc2)c1-c1ccncc1 (stereo not shown) [Example B-0541]
- IC50 [1, 5]: 3240 nM
- inhibition at 1 µM [2, 8]: 28%

Compound: CC(NS(=O)(=O)c1cccc2cnccc12)c1[nH]nc(-c2ccc(F)cc2)c1-c1ccncc1 (stereo not shown) [Example B-0490]
- IC50 [1, 5]: 910 nM
- inhibition at 1 µM [2, 8]: 74%

Compound: O=C(NC(Cc1ccccc1)c1[nH]nc(-c2ccc(F)cc2)c1-c1ccncc1)C1CC1 (stereo not shown) [Example B-0837]
- IC50 [1, 5]: 1960 nM
- IC50 [2, 9]: > 1000 nM

Compound: COc1ccc(C2OCCN2C(=O)Cn2nc(-c3ccc(F)cc3)c(-c3ccncc3)c2C)cc1OC (stereo not shown) [Example B-2399]
- P38 alpha kinase IC50, uM or % inhib @ conc. (uM): % inhib ([1]; @ 10.0 uM): 69.0% @
- U937 Cell IC50, uM or % inhib @ conc. (uM): % inhib ([2]; @ 10.0 uM, TNF production, U937 cells stimulated with LPS): 18.0% @

Compound: Cc1noc(C)c1S(=O)(=O)NCCCc1[nH]nc(-c2ccc(F)cc2)c1-c1ccncc1 [Example B-1281]
- IC50 [1, 3]: < 100 nM
- inhibition at 1 µM [2, 10]: 85%

Compound: CC(NC(=O)Nc1cccc(F)c1)c1[nH]nc(-c2ccc(F)cc2)c1-c1ccncc1 (stereo not shown) [Example B-0595]
- IC50 [1, 5]: 2420 nM
- U937 Cell % inhib @ conc. (uM) ([2]; @ 1.0 uM, TNF production in human U937 cells stimulated with LPS): 22.0% @

Compound: Cc1c(-c2ccncc2)c(-c2ccc(F)cc2)nn1CC(=O)NC1CCCC1 [Example B-2333]
- P38 alpha kinase % inhib @ conc. ([1]; @ 10.0 uM): 58.0% @
- U937 Cell % inhib @ conc. ([2]; @ 10.0 uM, TNF production, LPS-stimulated U937 cells): 36.0% @

Compound: COc1cccc(-c2n[nH]c(C)c2-c2ccncc2)c1 [Example A-44]
- IC50 ([1]; activated human p38 kinase alpha, PHAS-I substrate, 50 μM unlabeled ATP, read-out: p38 kinase IC50): < 100 nM
- IC50 ([2]; Table 5, LPS-stimulated U937 cells, TNF-α, read-out: U937 Cell Assay IC50): 477 nM

Compound: CC(NS(=O)(=O)C=Cc1ccccc1)c1[nH]nc(-c2ccc(F)cc2)c1-c1ccncc1 (stereo not shown) [Example B-0565]
- IC50 [1, 5]: 230 nM
- IC50 [2, 11]: 590 nM

Compound: O=C(NCCc1[nH]nc(-c2ccc(F)cc2)c1-c1ccncc1)NC1CC1c1ccccc1 (racemic) [Example B-0941]
- P38 alpha kinase % inhib @ conc. (uM) ([1]; @ 1.0 uM): 81.0% @
- U937 Cell % inhib @ conc. (uM) [2, 4]: 25.0% @

Compound: O=S(=O)(c1ccc(F)cc1)N1CCC(c2[nH]nc(-c3ccc(F)cc3)c2-c2ccncc2)CC1 [Example B-1470]
- IC50 [1, 3]: 600 nM
- inhibition at 1 µM [2, 10]: 28%

Compound: CC(NS(C)(=O)=O)c1[nH]nc(-c2ccc(F)cc2)c1-c1ccncc1 (stereo not shown) [Example B-0573]
- IC50 [1, 5]: 360 nM
- IC50 [2, 11]: 1700 nM

Compound: CC(C)C(=O)NC(Cc1ccccc1)c1[nH]nc(-c2ccc(F)cc2)c1-c1ccncc1 (stereo not shown) [Example B-0831]
- IC50 [1, 5]: 900 nM
- IC50 [2, 7]: > 1000 nM

Compound: NS(=O)(=O)c1ccc(CNC(=O)NCCCc2[nH]nc(-c3ccc(F)cc3)c2-c2ccncc2)cc1 [Example B-1308]
- IC50 [1, 3]: < 100 nM
- IC50 [2, 7]: > 1000 nM
